Measured values reported in patent US11701369B2, “Polymeric bile acid derivatives inhibit Hepatitis B and D virus and NTCP transport” (Huahui Health Ltd., priority 2014, dated 2023).
Entries after “also recorded” stand apart in the source; their conditions may differ. Where two headings read alike, the source gives them in different places.

Assays:
HDV = HDV infection assay on HepG2-NTCP cells (intracellular delta antigen staining); format: cell-based, Hepatitis D virus
Experimental: (§1) HBV and HDV infection assay. HepG2NTCP Cells were cultured in PMM for 12-24 hrs before infection, and then inoculated with 200 multiplicities of genome equivalents (mge) of HBV, or 500 mge of HDV in the presence of 5% PEG8000 in PMM at 37° C. for about 24 hrs. Chemicals to be tested were added to the cells as indicated in the specific assays. The inoculum was replenished by PMM post infection. The infections were detected at day 5 post infection (dpi).
Immunostaining assay. For HBV infection, infected cells were washed twice with PBS and fixed in 3.7% paraformaldehyde (PFA) at room temperature for 10 mins. Subsequently, cells were permeabilized with 0.5% Trition X-100/PBS for 10 mins at room temperature, blocked with 3% BSA at 37° C. for 1 hour, and followed by incubating with 5 μg/ml mouse mAb1C10 which recognizes HBcAg, and followed by staining with FITC-conjugated secondary antibody. Nucleus was stained with DAPI in blue. The stained cells were imaged with the fluorescence microscope (Nikon). For HDV infection, on 5 dpi, HDV infected cells were fixed with 100% methanol at room temperature for 10 mins, intracellular delta antigens were then stained with 5 μg/ml of FITC conjugated 4G5 and nucleus were stained with DAPI in blue. Images were collected by an Eclipse Ti Fluorescence Microscope (Nikon) and a representative picture is shown.

HBV [1] = experiment: HBV infection assay on HepG2-NTCP cells (secreted HBeAg by ELISA); format: cell-based, Hepatitis B virus; details: for inhibition of HBV infection (in words): secreted HBeAg
Experimental: as §1
ELISA assay for the detection of HBeAg and HBsAg. ELISA kits for HBeAg and HBsAg detection were from Wantai Pharm Inc. (Beijing, China). Supernatant from infected HepG2NTCP cells was collected on 2-5 days post infection. The secreted HBeAg and HBsAg in the culture medium was measured with a commercial kit from Wantai Pharm Inc (Beijing, China) by following the manufactory's instructions.

HepG2-NTCP cells = experiment: In vitro cytotoxicity on HepG2-NTCP cell line; format: cell-based
Experimental: FIG. 6 Toxicity of 3UT(NQL-012), DiU(NQL-009) and 3TPT(NQL-018) in cell cultures. HepG2-NTCP cells were incubated with 3UT(NQL-012), DiU(NQL-009) or 3TPT(NQL-018) at indicated concentrations for 48 hrs, cell viability was evaluated and images were captured at 5 dpi.
In vitro cytotoxicity of PBADs. We also conducted experiments to determine the LD50 on HepG2-NTCP cell line of the three PBADs (3-UT (NQL-012), DIU (NQL-009), 3TPT (NQL-018)). We treated cells by different concentrations of PBADs for 48 hrs and captured the images of cells after they were further cultured for 3 days in PMM. […] No detectable cytotoxicity was observed upon treatment of DIU(NQL-009) and 3TPT(NQL-018) up to 200 μM, which is 2000-4000 folds higher than its inhibitory concentration for HBV infection.

NTCP [2] = biological target: T1, NTCP (Homo sapiens, UniProt Q14973); experiment: FITC-preS1 peptide binding assay
T1 construct: expressed in transfected cells
T1 sequence (Q14973 1-349): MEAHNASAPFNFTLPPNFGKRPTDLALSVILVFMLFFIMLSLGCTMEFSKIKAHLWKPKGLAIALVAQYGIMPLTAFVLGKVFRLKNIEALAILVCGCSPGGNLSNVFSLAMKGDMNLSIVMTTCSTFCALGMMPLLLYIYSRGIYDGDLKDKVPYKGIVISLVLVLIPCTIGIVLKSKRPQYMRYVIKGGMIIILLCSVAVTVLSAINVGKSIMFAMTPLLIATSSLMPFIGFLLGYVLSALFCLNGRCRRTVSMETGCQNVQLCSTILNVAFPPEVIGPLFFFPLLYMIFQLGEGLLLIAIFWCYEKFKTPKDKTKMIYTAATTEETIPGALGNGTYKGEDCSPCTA
Experimental: FITC-preS1 peptide binding assay. NTCP expressing cells were cultured in PTH maintenance medium (PMM) for 24 hrs before conducting this assay. For Immunofluorescence microscopy, cells were incubated with 400 nM FITC-pre-S1 peptide diluted in WME or PMM at 37° C. for about 2-3 hrs. Subsequently, cells were washed once by WME, and then directly visualized with a Fluorescence Microscope.

HBV [3] = experiment: In vitro stability: incubation with HBV inocula before infection, HBeAg ELISA; format: cell-based, Hepatitis B virus; details: incubated with HBV inocula for different times before infection, HBeAg at 5 dpi
Experimental: FIG. 10 The influence of the linkage groups on the in vitro stability of PBADs. TUDCA, NQL018, NQL044, and NQL055 were incubated with HBV inocula of different times before viral infection, and present in the inocula during infection period. The level of secreted HBeAg was detected by ELISA at 5 dpi.
The in vitro stability of PBADs could PBADs could be enhanced by optimization of the linkage bond. We conducted stability analysis of several PBADs with similar structure but of different linkage. […] This indicates the in vitro and in vivo stability is to a large extent determined by the feature of the linkage groups.

HBV [4] = experiment: HBV infection assay on HepaRG cells (HBsAg and HBeAg ELISA); format: cell-based, Hepatitis B virus; details: HBsAg and HBeAg at 5 dpi
Experimental: FIG. 11 HepaRG cells were infected with HBV in the presence of indicated PBADs. The level of secreted HBsAg and HBeAg was detected by ELISA at 5 dpi.
The antiviral potency of PBADs is also repeatable on other HBV infection system (HepaRG) with similar inhibition profile. […] HBV infection was conducted in the presence of NQL028, NQL018, NQL029, NQL019 and NQL021, all of which were bis-ester based PBADs with different linkage length.

NTCP [5] = biological target: T1, NTCP; experiment: [3H] taurocholate uptake assay on HepG2-NTCP cells; format: cell-based; details: for inhibition of NTCP substrate uptake (in words): co-incubation assay, [3H] taurocholate, 10 min; for IC50: pretreatment assay, HepG2-NTCP cells pretreated 2 hrs before uptake assay, read-out: IC50 for inhibiting NTCP-mediated [3H] taurocholate uptake
Experimental: [3H] substrate uptake assay. [3H]taurocholate uptake assay was conducted following a protocol as previously described(60). In general, HepG2-NTCP cells were cultured in PMM for 12-24 hrs, then were treated with or without indicated chemicals before uptake assay. For substrate uptake assay, cells were generally incubated with 0.5 μl (0.5 μCi) [3H]-taurocholate dissolved in Na+ Ringer's solutions for 10 mins at 37° C. with or without the presence of chemicals. Subsequently, cells were washed once by PBS and lysed by 100 μl of 1% TritonX-100 in H2O for 5 mins at room temperature. The lysate was transferred into liquid scintillation tube and mixed with 900 μl liquid scintillation cocktail (Ultima GOLD™ XR) (Perkin Elmer, USA). Liquid scintillation counting was performed on a Perkin Elmer 1450 LSC Liquid Scintillation Counter and Luminescence Counter.

[6] = Hepatitis B virus, read-out: IC50 for inhibiting HBV infection, HepG2-NTCP cells, PBAD present during infection, HBeAg in medium at 5 dpi

C[C@H](CCC(=O)NCCS(=O)(=O)O)[C@H]1CC[C@H]2[C@@H]3[C@@H](O)CC4C[C@H](OC(=O)CCCC(=O)O[C@@H]5CC[C@@]6(C)C(C5)C[C@H](O)[C@H]5[C@@H]7CC[C@H]([C@H](C)CCC(=O)NCCS(=O)(=O)O)[C@@]7(C)CC[C@@H]56)CC[C@]4(C)[C@H]3CC[C@]12C (stereo in doubt) [NQL-018]
inhibition of HDV infection (in words) (HDV): high antiviral activity; also recorded: greatly improved potency | inhibition of HBV infection (in words) (HBV [1]; HepG2-NTCP cells): high antiviral activity; also recorded: greatly improved potency | IC50 (HBV [1]; [6]): 51 nM | IC50 (HBV [1]; read-out: IC50 for inhibiting HBV infection, HepG2-NTCP cells, PBAD present during infection, HBeAg in medium at 5 dpi): 51 nM | concentration up to which no detectable cytotoxicity was observed (HepG2-NTCP cells; human, 48 h): 200 µM | blocking of FITC-preS1 binding to NTCP (in words) (NTCP [2]; HepG2-NTCP cells, pretreatment versus co-incubation, 3 hrs): effect of pretreatment of 3TPT(NQL-018) was not as strong as that of co-incubation | in vitro stability (antiviral potency after long incubation with the inoculum) (HBV [3]): not stable upon long time incubation with the inoculum; also recorded: decreased activity after long time incubation | inhibition of HBV infection on HepaRG cells (in words) (HBV [4]): inhibited HBV infection | inhibition of NTCP substrate uptake (in words) (NTCP [5]): significantly higher efficiency than that of TUDCA | IC50 (NTCP [5]): 58.7 nM

C[C@H](CCC(=O)O[C@H]1CC[C@@]2(C)C(C1)C[C@H](O)C1[C@H]3CC[C@H]([C@H](C)CCC(=O)NCCS(=O)(=O)O)[C@@]3(C)CC[C@H]12)[C@H]1CC[C@@H]2C3[C@@H](CC[C@@]21C)[C@@]1(C)CC[C@H](O)CC1C[C@@H]3O (stereo partly shown) [NQL-012]
inhibition of HDV infection (in words) (HDV): high antiviral activity; also recorded: greatly improved potency | inhibition of HBV infection (in words) (HBV [1]; HepG2-NTCP cells): high antiviral activity; also recorded: greatly improved potency | IC50 (HBV [1]; [6]): 100 nM | LD50 (HepG2-NTCP cells; HepG2-NTCP, 48 hrs treatment, then 3 days culture in PMM): ~25 µM | inhibition of NTCP substrate uptake (in words) (NTCP [5]): significantly higher efficiency than that of TUDCA | IC50 (NTCP [5]): 109 nM

C[C@H](CCC(=O)O[C@H]1CC[C@@]2(C)C(C1)C[C@H](O)C1[C@H]3CC[C@H]([C@H](C)CCC(=O)O[C@H]4CC[C@@]5(C)C(C4)C[C@H](O)C4[C@H]6CC[C@H]([C@H](C)CCC(=O)NCCS(=O)(=O)O)[C@@]6(C)CC[C@H]45)[C@@]3(C)CC[C@H]12)[C@H]1CC[C@@H]2C3[C@@H](CC[C@@]21C)[C@@]1(C)CC[C@H](O)CC1C[C@@H]3O (stereo partly shown) [NQL-016]
inhibition of HDV infection (in words) (HDV): not as high as the dimeric counterparts | inhibition of HBV infection (in words) (HBV [1]; HepG2-NTCP cells): not as high as the dimeric counterparts | effect on FITC-preS1 peptide at high concentration (NTCP [2]; high concentration of compound): aggregation of FITC-preS1 peptide
